Experimental data taken from patent US20160145247A1, “Aminomethyl-Biaryl Derivatives Complement Factor D inhibitors and uses thereof” (NOVARTIS AG, priority 2013, published 2016).

Target: T1, factor D (Homo sapiens, UniProt P00746)
T1 construct: made in house; host or cells: E. coli
Assay: factor D inhibition assay of Biological Example 2
Format: biochemical

T1 sequence (P00746 26-253): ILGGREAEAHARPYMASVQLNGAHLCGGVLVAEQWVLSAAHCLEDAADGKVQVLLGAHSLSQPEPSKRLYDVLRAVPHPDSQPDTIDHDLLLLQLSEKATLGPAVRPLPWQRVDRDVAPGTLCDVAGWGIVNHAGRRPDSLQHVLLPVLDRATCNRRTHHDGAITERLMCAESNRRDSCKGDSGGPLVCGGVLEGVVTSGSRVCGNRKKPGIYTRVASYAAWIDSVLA

C[C@@H](N)c1cccc(-c2cc(NCC3CC3)c3c(c2)C(Oc2ccccc2CC(=O)O)CCC3)c1F (stereo partly shown) [Example 216-Z] and C[C@@H](N)c1cccc(-c2cc(COc3ccccc3CC(=O)O)cc(NCC3CCCO3)c2F)c1F (stereo partly drawn) [Example 222, 2-(2-((3′-((R)-1-aminoethyl)-2′,6-difluoro-5-(((tetrahydrofuran-2-yl)methyl)amino)-[1,1′-biphenyl]-3-yl)methoxy)phenyl)acetic acid] are within 1.5-fold of each other in IC50: 13 nM for the first, 16 nM for the second.

Going from NCc1cc(F)cc(-c2cc(NC[C@H]3CCCO3)cc(C(=O)Nc3ccccc3CC(=O)O)c2)c1 [Example 14-D] to NCc1cc(F)cc(-c2cc(NCC3CCOC3)cc(C(=O)Nc3ccccc3CC(=O)O)c2)c1 (stereo not shown) [Example 79-A], the IC50 falls from 21 nM to 5 nM (4.2-fold). The second is the more potent here.

COCc1cc(COc2ccccc2CC(=O)O)cc(-c2cccc([C@@H](C)N)c2F)c1 [Example 120-A] and C[C@@H](N)c1cccc(-c2cc(COc3ccccc3CC(=O)O)cc(NCC(F)F)c2)c1F [Example 216-M] are within 1.5-fold of each other in IC50: 15 nM for the first, 13 nM for the second.

Going from N[C@H](CO)c1cccc(-c2ccc3c(c2)C(Oc2ccccc2CC(=O)O)CCC3)c1 (mixture of isomers) [Example 181, 2-(2-((7-(3-((S)-1-Amino-2-hydroxyethyl)phenyl)-1,2,3,4-tetrahydronaphthalen-1-yl)oxy)phenyl)acetic acid (mixture of diastereomers)] to NCc1cccc(-c2ccc3c(c2)C(Oc2ccccc2CC(=O)O)CCO3)c1 (single isomer, unassigned) [177 b) (tr = 3.2 min), (+) or (−)-2-(2-((6-(3-(aminomethyl)phenyl)chroman-4-yl)oxy)phenyl)acetic acid], the IC50 falls from 8 nM to 4 nM (2-fold). The second is the more potent here.

First: NCc1cccc(-c2cccc(COc3c(Br)cccc3CC(=O)O)c2)c1 [Example 174, 2-(2-((3′-(Aminomethyl)-[1,1′-biphenyl]-3-yl)methoxy)-3-bromophenyl)acetic acid]
Second: NCc1cccc(-c2cccc(COc3ccc(Br)cc3CC(=O)O)c2)c1 [Example 168, 2-(2-((3′-(Aminomethyl)-[1,1′-biphenyl]-3-yl)methoxy)-5-bromophenyl)acetic acid]
The IC50 of the first is 4.1-fold higher: 111 nM for the first, 27 nM for the second.

Compared with Cc1cc(Nc2cc(C(=O)Nc3ccccc3CC(=O)O)cc(-c3cc(F)cc(CN)c3)c2)[nH]n1 [Example 79-H], NCc1cc(F)cc(-c2cc(Br)cc(C(=O)Nc3ccccc3CC(=O)O)c2)c1 [Example 12, 2-(2-(3′-(Aminomethyl)-5-bromo-5′-fluoro-[1,1′-biphenyl]-3-ylcarboxamido)phenyl)acetic acid] is 4.7-fold higher in IC50: 17 nM for the first, 80 nM for the second.

N[C@H](CO)c1cccc(-c2cc(COc3ccccc3CC(=O)O)cc(C(O)C3CCCCC3)c2)c1 (mixture of isomers) [116-I a), 2-(2-((3′-((S)-1-amino-2-hydroxyethyl)-5-(cyclohexyl(hydroxy)methyl)-[1,1′-biphenyl]-3-yl)methoxy)phenyl)acetic acid] and CC(O)c1cc(COc2ccccc2CC(=O)O)cc(-c2cccc([C@H](N)CO)c2)c1 (single isomer, unassigned) [116-E b) (tr = 3.8 min)] are within 1.5-fold of each other in IC50: 13 nM for the first, 11 nM for the second.

Compared with NCc1cccc(-c2cc(COc3ccccc3CC(=O)O)cc(NCC3CC3)c2)c1 [Example 139, 2-(2-((3′-(Aminomethyl)-5-((cyclopropylmethyl)amino)-[1,1′-biphenyl]-3-yl)methoxy)phenyl)acetic acid], NCc1cccc(-c2cccc(COc3cc(CC4CC4)ccc3CC(=O)O)c2)c1 [Example 295-C, 2-(2-((3′-(aminomethyl)-[1,1′-biphenyl]-3-yl)methoxy)-4-(cyclopropylmethyl)phenyl)acetic acid] is 2.4-fold lower in IC50: 22 nM for the first, 9 nM for the second.

Compared with C[C@@H](N)c1cccc(-c2cc(COc3ccccc3CC(=O)O)cc(OCc3ncn(C)n3)c2)c1F [Example 214-K], C[C@@H](N)c1cccc(-c2cc(CCc3ccn(C)n3)cc(COc3ccccc3CC(=O)O)c2)c1F [Example 218-I, (R)-2-(2-((3′-(1-aminoethyl)-2′-fluoro-5-(2-(1-methyl-1H-pyrazol-3-yl)ethyl)-[1,1′-biphenyl]-3-yl)methoxy)phenyl)acetic acid] is 1.5-fold lower in IC50: 15 nM for the first, 10 nM for the second.

First: CC(O)c1ccc(NC(=O)c2cccc(-c3cc(F)cc(CN)c3)c2)c(CC(=O)O)c1 (stereo not shown) [Example 24, 2-(2-(3′-(Aminomethyl)-5′-fluoro-[1,1′-biphenyl]-3-ylcarboxamido)-5-(1-hydroxyethyl)phenyl)acetic acid]
Second: NCc1cc(F)cc(-c2cccc(C(=O)Nc3c(F)cccc3CC(=O)O)c2)c1 [Example 21-D]
The IC50 of the first is 1.8-fold higher: 1740 nM for the first, 989 nM for the second.

First: CNC(c1cc(COc2ccccc2CC(=O)O)cc(-c2cccc(CN)c2)c1)C(F)(F)F (stereo not shown) [Example 208-A]
Second: NCc1cccc(-c2cc(COc3ccccc3CC(=O)O)cc(C(Nc3ccccc3)C(F)(F)F)c2)c1 (stereo not shown) [Example 208-C]
The IC50 of the first is 3.2-fold higher: 19 nM for the first, 6 nM for the second.

First: NCc1cc(F)cc(-c2nc(C(=O)Nc3ccccc3CC(=O)O)c(NC[C@@H]3CCCO3)s2)c1 [Example 33, (S)-2-(2-(2-(3-(Aminomethyl)-5-fluorophenyl)-5-(((tetrahydrofuran-2-yl)methyl)amino)thiazole-4-carboxamido)phenyl)acetic acid]
Second: CNc1sc(-c2cc(F)cc(CN)c2)nc1C(=O)Nc1ccccc1CC(=O)O [Example 31-B, 2-(2-(2-(3-(aminomethyl)-5-fluorophenyl)-5-(methylamino)thiazole-4-carboxamido)phenyl)acetic acid]
The IC50 of the first is 2.3-fold lower: 7 nM for the first, 16 nM for the second. The first is the more potent here.

Going from NC1(c2cccc(-c3cccc(C(=O)Nc4ccccc4CC(=O)O)c3)c2)CC1 [Example 92, 2-(2-(3′-(1-Aminocyclopropyl)-[1,1′-biphenyl]-3-ylcarboxamido)phenyl)acetic acid] to COCCOc1cc(C(=O)Nc2ccccc2CC(=O)O)cc(-c2cccc(CN)c2)c1 [Example 72-B, 2-(2-(3′-(Aminomethyl)-5-(2-methoxyethoxy)-[1,1′-biphenyl]-3-ylcarboxamido)phenyl)acetic acid], the IC50 falls from 8470 nM to 58 nM (150-fold). The second is the more potent here.

NCc1cccc(-c2cc(CNCC(F)(F)F)cc(COc3ccccc3CC(=O)O)c2)c1 [Example 208-E] and NCc1cccc(-c2cc(COc3ccccc3CC(=O)O)cc(C(NC(=O)c3ccccc3)C(F)(F)F)c2)c1 (stereo not shown) [Example 208-D] are within 1.5-fold of each other in IC50: 3 nM for the first, 4 nM for the second.

Going from NCc1cc(F)cc(-c2cc(OCc3ccncc3)cc(C(=O)Nc3ccccc3CC(=O)O)c2)c1 [Example 65, 2-(2-(3′-(Aminomethyl)-5′-fluoro-5-(pyridin-4-ylmethoxy)-[1,1′-biphenyl]-3-ylcarboxamido)phenyl)acetic acid] to CC(C(=O)O)c1ccccc1NC(=O)c1cccc(-c2cc(F)cc(CN)c2)c1 (racemic) [Example 19-B, (±)-2-(2-(3′-(Aminomethyl)-5′-fluoro-[1,1′-biphenyl]-3-ylcarboxamido)phenyl)propanoic acid], the IC50 rises from 17 nM to 666 nM (39-fold). The first is the more potent here.

Going from NCc1cccc(-c2cccc(OCc3ccccc3CC(=O)O)n2)c1 [Example 99-C, 2-(2-(((6-(3-(Aminomethyl)phenyl)pyridin-2-yl)oxy)methyl)phenyl)acetic acid] to NCc1cccc(-c2cccc(COc3ccccc3CC(=O)O)c2)c1F [Example 138-H], the IC50 falls from 1850 nM to 5 nM (370-fold). The second is the more potent here.

Going from N[C@H](CO)c1cccc(-c2cc(COc3ccccc3CC(=O)O)cc(NCC3CCCO3)c2F)c1 (mixture of isomers) [Example 157, 2-(2-((3′-((S)-1-Amino-2-hydroxyethyl)-6-fluoro-5-(((tetrahydrofuran-2-yl)methyl)amino)-[1,1′-biphenyl]-3-yl)methoxy)phenyl)acetic acid] to NCc1cccc(-c2cc(COc3ccccc3CC(=O)O)cc(NCC3CCCO3)c2F)c1 (racemic) [Example 156-B, (±)-2-(2-((3′-(Aminomethyl)-6-fluoro-5-(((tetrahydrofuran-2-yl)methyl)amino)-[1,1′-biphenyl]-3-yl)methoxy)phenyl)acetic acid], the IC50 falls from 5 nM to 2 nM (2.5-fold). The second is the more potent here.

Compared with CNCc1cccc(-c2cccc(COc3ccccc3CC(=O)O)c2)c1 [Example 288, 2-(2-((3′-((methylamino)methyl)-[1,1′-biphenyl]-3-yl)methoxy)phenyl)acetic acid], CC(C(=O)O)c1ccccc1OCc1cccc(-c2cccc(CN)c2)c1 (stereo not shown) [Example 290, 2-(2-((3′-(aminomethyl)-[1,1′-biphenyl]-3-yl)methoxy)phenyl)propanoic acid] is 2.1-fold lower in IC50: 3430 nM for the first, 1670 nM for the second. The second is the more potent here.

First: CCOC(=O)Cc1ccccc1OCc1cccc(-c2cccc([C@H](N)CO)c2)c1 [Example 268-C, (S)-Ethyl 2-(2-((3′-(1-amino-2-hydroxyethyl)-[1,1′-biphenyl]-3-yl)methoxy)phenyl)acetate]
Second: N[C@H](CO)c1cccc(-c2cc(COc3ccccc3CC(=O)O)cc(OCC3CC3)c2)c1 [Example 147-B, (S)-2-(2-((3′-(1-Amino-2-hydroxyethyl)-5-(cyclopropylmethoxy)-[1,1′-biphenyl]-3-yl)methoxy)phenyl)acetic acid]
The IC50 of the first is 11000-fold higher: 54800 nM for the first, 5 nM for the second.

Compared with NCc1cccc(-c2cc(N3CCN(c4ccccc4)CC3)cc(C(=O)Nc3ccccc3CC(=O)O)n2)c1 [Example 51, 2-(2-(6-(3-(Aminomethyl)phenyl)-4-(4-phenylpiperazin-1-yl)picolinamido)phenyl)acetic acid], NCc1cccc(-c2ccnc(COc3ccccc3CC(=O)O)c2)c1 [Example 164, 2-(2-((4-(3-(Aminomethyl)phenyl)pyridin-2-yl)methoxy)phenyl)acetic acid] is 2.2-fold higher in IC50: 6 nM for the first, 13 nM for the second. The first is the more potent here.

Going from N[C@H](CO)c1cccc(-c2cc(COc3ccccc3CC(=O)O)cc(OC[C@H]3CCCO3)c2)c1F [Example 231-F, 2-(2-((3′-((S)-1-amino-2-hydroxyethyl)-2′-fluoro-5-(((R)-tetrahydrofuran-2-yl)methoxy)-[1,1′-biphenyl]-3-yl)methoxy)phenyl)acetic acid] to C[C@@H](N)c1cccc(-c2cc(COc3ccccc3CC(=O)O)cc(C3CCCC3)c2)c1F [Example 244, (R)-2-(2-((3′-(1-aminoethyl)-5-cyclopentyl-2′-fluoro-[1,1′-biphenyl]-3-yl)methoxy)phenyl)acetic acid], the IC50 falls from 9 nM to 3 nM (3-fold).

In the case of N#Cc1ccc(CC(=O)O)c(OCc2cccc(-c3cccc(CN)c3)c2)c1 [Example 294-B], the IC50 is reported as 40 nM.
